Like-named read-outs stand apart in the source and are kept apart here.
Test system: hybrid corn varieties
Type: in vivo
Settings: for GY BU (2) (Grain Yield in bushels) / PC # (1): IFSA Inbred FR-A
[1] = Fludioxonil 3.5 GA/100 Kg seed, Azoxystrobin 1 GA/100 Kg seed
[2] = IFSA Inbred FR-C, Fludioxonil 2.5 GA/100 Kg seed
[3] = IFSA Inbred FR-C, Fludioxonil 3.5 GA/100 Kg seed, Azoxystrobin 1 GA/100 Kg seed
[4] = IFSA Inbred FR-D, Fludioxonil 2.5 GA/100 Kg seed
[5] = IFSA Inbred FR-D, Fludioxonil 3.5 GA/100 Kg seed, Azoxystrobin 1 GA/100 Kg seed
[6] = IFSA Inbred FR-F, Fludioxonil 2.5 GA/100 Kg seed
[7] = IFSA Inbred FR-F, Fludioxonil 3.5 GA/100 Kg seed, Azoxystrobin 1 GA/100 Kg seed
[8] = IFSA Inbred FR-G, Fludioxonil 2.5 GA/100 Kg seed
[9] = IFSA Inbred FR-G, Fludioxonil 3.5 GA/100 Kg seed, Azoxystrobin 1 GA/100 Kg seed
[10] = IFSA Inbred W-A, Fludioxonil 2.5 GA/100 Kg seed
[11] = IFSA Inbred W-A, Fludioxonil 3.5 GA/100 Kg seed, Azoxystrobin 1 GA/100 Kg seed
[12] = IFSA Inbred W-B, Fludioxonil 2.5 GA/100 Kg seed
[13] = IFSA Inbred W-B, Fludioxonil 3.5 GA/100 Kg seed, Azoxystrobin 1 GA/100 Kg seed

| SMILES | GY BU (2) (Grain Yield in bushels) [1] [a BU] | PC # (1) [1] [a] | GY BU [3] | PC # [3] [ab] | GY BU [5] [a BU] | PC # [5] [a] | GY BU [7] | PC # [7] | GY BU [9] [a BU] | PC # [9] | GY BU [11] [ab BU] | PC # [11] [a] | GY BU [13] [a BU] | PC # [13] | also measured |
| --- | --- | --- | --- | --- | --- | --- | --- | --- | --- | --- | --- | --- | --- | --- | --- |
| N#Cc1c[nH]cc1-c1cccc2c1OC(F)(F)O2 [Fludioxonil, fludioxonil] | 180 | 23744 | 176 b BU | 23915 | 185 | 24599 | 225 a BU | 24428 a | 85 | 11787 ab | 180 | 19986 | 204 | 22036 b | GY BU (2) (Grain Yield in bushels) (Fludioxonil 2.5 GA/100 Kg seed): 181 a BU; PC # (1) (Fludioxonil 2.5 GA/100 Kg seed): 23403 a; GY BU [2]: 198 a BU; PC # [2]: 24428 a; GY BU [4]: 184 a BU; PC # [4]: 23574 a; GY BU [6]: 183 b BU; PC # [6]: 19986 b; GY BU [8]: 83 a BU; PC # [8]: 13495 a; GY BU [10]: 172 ab BU; PC # [10]: 19474 a; GY BU [12]: 215 a BU; PC # [12]: 24599 a |
| CO/C=C(/C(=O)OC)c1ccccc1Oc1cc(Oc2ccccc2C#N)ncn1 [Azoxystrobin, azoxystrobin] | 168 | 23232 | 187 ab BU | 24086 | 193 | 23574 | 179 b BU | 18107 bc | 89 | 13153 a | 173 | 19645 | 204 | 23574 ab |  |

From US20090306060A1 (priority 2004, published 2009)
